For 25 compounds, IC50 results are on record in US5869476A, “Pyrimidinone derivatives” (Boryung Pharmaceutical Co., Ltd., priority 1994, dated 1999).

In one assay the target is T1, angiotensin II receptor (Oryctolagus cuniculus, UniProt P34976).
T1 construct: The aorta was cut into 3~4 mm to form ring samples; from tissue; host or cells: isolated aorta rings of New Zealand White rabbits
T1 sequence (P34976 1-359): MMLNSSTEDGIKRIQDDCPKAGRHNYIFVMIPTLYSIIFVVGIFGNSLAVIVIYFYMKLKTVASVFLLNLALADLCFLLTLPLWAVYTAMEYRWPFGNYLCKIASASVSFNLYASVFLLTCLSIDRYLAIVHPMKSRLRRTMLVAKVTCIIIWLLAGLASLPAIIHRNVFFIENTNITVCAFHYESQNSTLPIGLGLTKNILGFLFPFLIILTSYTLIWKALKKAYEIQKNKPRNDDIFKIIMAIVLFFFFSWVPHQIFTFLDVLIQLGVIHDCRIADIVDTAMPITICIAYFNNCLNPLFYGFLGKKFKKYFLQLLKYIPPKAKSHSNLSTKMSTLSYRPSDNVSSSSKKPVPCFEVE
Nature of the assay: inhibition of angiotensin II induced contraction of isolated rabbit aorta rings. Conditions: test compound incubated 20 minutes, 37° C., pH 7.4, read-out: IC50 (concentration being required to inhibit angiotensin II induced contraction by 50%). Type of assay: cell-based, New Zealand White rabbit. The method, then: The antagonistic activity of the representative compounds of the invention was evaluated using the methodology describe below.
From New Zealand White rabbits (male or female, 2~2.5 kg), aorta was isolated, and fat and connected tissue were removed therefrom. The aorta was cut into 3~4 mm to form ring samples. The aorta sample was suspended in 20 ml of organ bath (37° C.) containing modified Krebs-Henseleit solution saturated with 95% O2 /5% CO2 (pH 7.4).
The aorta preparation was exposed consecutively to 2 g of tensile strength for 90 minutes intermittently washing the sample with 30 minutes interval and then to 30 mM of KCl to observe contraction response. After washing more than three times, the aorta preparation was again allowed to contract three times for stabilization by adding Angiotensin II ([…]) thereto with 30 minutes interval. The third contraction response to Angiotensin II was considered as control.
10 minutes after the third contraction, the test compound was administered to the aorta preparation, which was incubated for 20 minutes.
Comparing angiotensin II contraction curve obtained from the above inhibition test with that of the control, IC50 (concentration being required to inhibit angiotensin II induced contraction by 50%) was determined for each test compound(Table 1).
With `CCc1nc(C)c(CCC(=O)N(CC)CC)c(=O)n1Cc1ccc(-c2ccccc2-c2nnn[nH]2)cc1` [Compound 8, 2-ethyl-5-(2'-diethylaminocarbonylethyl)-6-methyl-3-[[2'-(1H-tetrazol-5-yl)biphenyl-4-yl]methyl]-pyrimidin-4(3H)-one], the IC50 is 73.6 nM. Consider `CCCCc1nc(CC)c(CCC(=O)OCC)c(=O)n1Cc1ccc(-c2ccccc2-c2nn[nH]n2)cc1` [Compound 33, 2-n-butyl-5-(2'-ethoxycarbonylethyl)-6-ethyl-3-[[2'-(1H-tetrazol-5-yl)biphenyl-4-yl]methyl]-pyrimidin-4-(3H)-one], for which the IC50 came out at 11.2 nM. The same measure, in the same setting: as for `CCCCc1nc(C)c(CC(=O)N2CCCC(C)(C)C2)c(=O)n1Cc1ccc(-c2ccccc2-c2nn[nH]n2)cc1` [Compound 49, 2-n-butyl-5-(3',3'-dimethylpiperidinocarbonylmethyl)-6-methyl-3-[[2'-(1H-tetrazol-5-yl)biphenyl-4-yl]methyl]-pyrimidin-4-(3H)-one], the figure is 8.96 nM.

Take `CCCCc1nc(C)c(CC(=O)N2CCC(Cc3ccccc3)CC2)c(=O)n1Cc1ccc(-c2ccccc2-c2nn[nH]n2)cc1` [Compound 47, 2-n-butyl-5-(4'-benzylpiperidinocarbonylmethyl)-6-methyl-3-[[2'-(1H-tetrazol-5-yl)biphenyl-4-yl]methyl]-pyrimidin-4-(3H) -one]: the IC50 came out at 128 nM.

`CCc1nc(=O)c(CCC(=O)O)c(C)n1Cc1ccc(-c2ccccc2-c2nnn[nH]2)cc1` [Compound 7, 2-ethyl-5-(2'-carboxyethyl)-6-methyl-1-[[2'-(1H-tetrazol-5-yl)-biphenyl-4-yl]methyl]-pyrimidin-4-(1H)-one]: the IC50 is 2.84 nM.

`CCCCc1nc(C)c(CC(=O)N2CCCC(C(=O)N(CC)CC)C2)c(=O)n1Cc1ccc(-c2ccccc2-c2nn[nH]n2)cc1` (stereo not shown) [Compound 55, 2-n-butyl-5-(3'-diethylaminocarbonylpiperidinocarbonylmethyl)-6-methyl-3-[[2'-(1H-tetrazol-5-yl)biphenyl-4-yl]methyl]-pyrimidin-4-(3H)-one]: the IC50 came to 3.64 nM. On the same count and under the same terms, the figure for `CCCc1nc(C)c(CCC(=O)O)c(=O)n1Cc1ccc(-c2ccccc2-c2nnn[nH]2)cc1` [Compound 14, 2-n-propyl-5-(2'-carboxyethyl)-6-methyl-3-[[2'-(1H-tetrazol-5-yl)-biphenyl-4-yl]methyl]-pyrimidin-4-(3H)-one] is 7.39 nM.

For the compound `CCCCc1nc(CC)c(CCC(=O)O)c(=O)n1Cc1ccc(-c2ccccc2-c2nn[nH]n2)cc1` [Compound 34, 2-n-butyl-5-(2'-carboxyethyl)-6-ethyl-3-[[2'-(1H-tetrazol-5-yl)-biphenyl-4-yl]methyl]-pyrimidin-4-(3H)-one], the IC50 is 4.17 nM.

In the case of `CCCCc1nc(C)c(CC(=O)O)c(=O)n1Cc1ccc(-c2ccccc2-c2nnn[nH]2)cc1` [Compound 19, 2-n-butyl-5-carboxymethyl-6-methyl-3-[[2'-(1H-tetrazol-5-yl)-biphenyl-4-yl]methyl]-pyrimidin-4-(3H)-one], the IC50 was found to be 2.63 nM. On the same count and under the same terms, as for `CCCCc1nc(=O)c(CC(=O)N2CCCCC2)c(C)n1Cc1ccc(-c2ccccc2-c2nn[nH]n2)cc1` [Compound 46, 2-n-butyl-5-piperidinocarbonylmethyl-6-methyl-1-[[2'-(1H-tetrazol-5-yl)biphenyl-4-yl]methyl]-pyrimidin-4-(1H)-one], the figure is 405 nM; as for `CCCCc1nc(C)c(CC(=O)N2CCC[C@H]2C(N)=O)c(=O)n1Cc1ccc(-c2ccccc2-c2nn[nH]n2)cc1` [Compound 43, 2-n-butyl-5-[(S)-2'-aminocarbonylpyrrolidinocarbonylmethyl]-6-methyl-3-[[2'-(1H-tetrazol-5-yl)biphenyl-4-yl]methyl]-pyrimidin-4-(3H)-one], 2.08 nM; as for `CCCc1nc(C)c(CCC(=O)N(CC)CC)c(=O)n1Cc1ccc(-c2ccccc2-c2nnn[nH]2)cc1` [Compound 16, 2-n-propyl-5-(2'-diethylaminocarbonylethyl)-6-methyl-3-[[2'-(1H-tetrazol-5-yl)biphenyl-4-yl]methyl]-pyrimidin-4-(3H)-one], 174 nM. The same measure, in the same setting: as for `CCCCc1nc(C)c(CCCC(=O)O)c(=O)n1Cc1ccc(-c2ccccc2-c2nnn[nH]2)cc1` [Compound 30, 2-n-butyl-5-(3'-carboxypropyl)-6-methyl-3-[[2'-(1H-tetrazol-5-yl)biphenyl-4-yl]methyl]-pyrimidin-4-(3H)-one], the figure is 7.26 nM.

For `CCCCc1nc(CCC)c(CCC(=O)OCC)c(=O)n1Cc1ccc(-c2ccccc2-c2nn[nH]n2)cc1` [Compound 36, 2-n-butyl-5-(2'-ethoxycarbonylethyl)-6-propyl-3-[[2'-(1H-tetrazol-5-yl)biphenyl-4-yl]methyl]-pyrimidin-4-(3H)-one], the IC50 came out at 44.5 nM. Still for that read-out and setting: the figure for `CCCCc1nc(C)c(CCC(=O)N2CCC(C(=O)OCC)CC2)c(=O)n1Cc1ccc(-c2ccccc2-c2nn[nH]n2)cc1` [Compound 66, 2-n-butyl-5-[2'-(4"-ethoxycarbonylpiperidino)carbonylethyl]-6-methyl-3-[[2'-(1H-tetrazol-5-yl)biphenyl-4-yl]methyl]-pyrimidin-4-(3H)-one] is 9.7 nM. The same measure, in the same setting: the figure for `CCCCc1nc(C)c(CCC(=O)N2CCCC2)c(=O)n1Cc1ccc(-c2ccccc2-c2nn[nH]n2)cc1` [Compound 58, 2-n-butyl-5-(2'-pyrrolidinocarbonylethyl)-6-methyl-3-[[2'-(1H-tetrazol-5-yl)biphenyl-4-yl]methyl]-pyrimidin-4-(3H)-one] is 5.86 nM. The same measure, in the same setting: the figure for `CCCCc1nc(C)c(CC(=O)OCC)c(=O)n1Cc1ccc(-c2ccccc2-c2nnn[nH]2)cc1` [Compound 17, 2-n-butyl-5-ethoxycarbonylmethyl-6-methyl-3-[[2'-(1H-tetrazol-5-yl)biphenyl-4-yl]methyl]-pyrimidin-4-(3H)-one] is 4.63 nM; for `CCCCc1nc(C)c(CC(=O)N2[C@H](C)CCC[C@@H]2C)c(=O)n1Cc1ccc(-c2ccccc2-c2nn[nH]n2)cc1` [Compound 50, 2-n-butyl-5-(cis-2',6'-dimethylpiperidinocarbonylmethyl)-6-methyl-3-[[2'-(1H-tetrazol-5-yl)biphenyl-4-yl]methyl]-pyrimidin-4-(3H)-one] it is 28.4 nM; for `CCCCc1nc(C)c(CCC(=O)O)c(=O)n1Cc1ccc(-c2ccccc2-c2nnn[nH]2)cc1` [Compound 25, 2-n-butyl-5-(2'-carboxyethyl)-6-methyl-3-[[2'-(1H-tetrazol-5-yl)-biphenyl-4-yl]methyl]-pyrimidin-4-(3H)-one] it is 9.43 nM. `CCCc1nc(C)c(CC(=O)O)c(=O)n1Cc1ccc(-c2ccccc2-c2nnn[nH]2)cc1` [Compound 10, 2-n-propyl-5-carboxymethyl-6-methyl-3-[[2'-(1H-tetrazol-5-yl)-biphenyl-4-yl]methyl]-pyrimidin-4-(3H)-one]: the IC50 was 37.1 nM. The same measure, in the same setting: as for `CCCCc1nc(C)c(CC(=O)N2CCN(C)CC2)c(=O)n1Cc1ccc(-c2ccccc2-c2nn[nH]n2)cc1` [Compound 76, 2-n-butyl-5-(4'-methylpiperazinocarbonylmethyl)-6-methyl-3-[[2'-(1H-tetrazol-5-yl)biphenyl-4-yl]methyl]-pyrimidin-4-(3H)-one], the figure is 3.59 nM; as for `CCCCc1nc(C)c(CCCC(=O)N(CC)CC)c(=O)n1Cc1ccc(-c2ccccc2-c2nn[nH]n2)cc1` [Compound 32, 2-n-butyl-5-(3'-diethylaminocarbonylpropyl)-6-methyl-3-[[2'-(1H-tetrazol-5-yl)biphenyl-4-yl]methyl]-pyrimidin-4-(3H )-one], 2.95 nM; as for `CCCCc1nc(C)c(CCC(=O)N2CCSCC2)c(=O)n1Cc1ccc(-c2ccccc2-c2nn[nH]n2)cc1` [Compound 80, 2-n-butyl-5-(2'-thiomorpholinocarbonylethyl)-6-methyl-3-[[2'-(1H-tetrazol-5-yl)biphenyl-4-yl]methyl]-pyrimidin-4-(3H)-one], 4.06 nM. The same measure, in the same setting: as for `CCOC(=O)Cc1c(C)nc(CC)n(Cc2ccc(-c3ccccc3-c3nnn[nH]3)cc2)c1=O` [Compound 1, 2-ethyl-5-ethoxycarbonylmethyl-6-methyl-3-[[2'-(1H-tetrazol-5-yl)biphenyl-4-yl]methyl]-pyrimidin-4-(3H)-one], the figure is 9.05 nM.

Still in this assay, the particulars now being: test compound incubated 20 minutes, value given in M, read-out: IC50 (concentration being required to inhibit angiotensin II induced contraction by 50%).
For `CCCCc1nc(C)c(CCC(=O)N2CCC(C)CC2)c(=O)n1Cc1ccc(-c2ccccc2-c2nn[nH]n2)cc1` [Compound 64, 2-n-butyl-5-[2'-(4"-methylpiperidino)carbonylethyl]-6-methyl-3-[[2'-(1H-tetrazol-5-yl)biphenyl-4-yl]methyl]-pyrimidin-4-(3H)-one], the IC50 is above 10000 nM.
